Source: patent US12594307B2, “Compositions and methods of using inducible signaling for tunable dynamics in microbial communities” (priority 2019, dated 2026)
“Also recorded” adds a separate entry of the source.

Columns and labels:
iSLC strain [1] = assay: cells survival assay (CFU count) of iSLC strain in liquid culture; format: cell-based, E. coli; conditions: 3 mL culture tubes, eight hours; 300 nM, 500 nM, 1 μM; independent of inducer concentration; FIG. 3D
Method: Cell viability assays to test the efficacy of iQS as a kill switch were done by measuring colony forming units (CFUs), following a protocol found in the literature. Cells were grown under survival conditions in LB with 0.2% glucose which inhibits the LuxI promoter thanks to the presence of a binding site for the CAP-CAMP activating complex. Following overnight growth, they were transferred into four cultures of fresh LB medium with 0.2% glucose, 300 nM p-coumaric acid, 500 nM p-coumaric acid and 1 μM p-coumaric acid, respectively. Samples were collected every 2 hours and serially diluted in PBS over a 7-log range and spotted (2 μL) onto LB agar plates with 0.2% glucose. The equations used arc: CFU/ml=(number of colonies)×(dilution factor)/0.002 mL, survival ratio (log 10)=log (CFU/ml with glucose)/(CFU/ml with p-coumaric acid).
Experiments were performed to investigate whether inducer concentrations could be modulated during culture to show the culture can switch between states of constant growth (circuit quiescence), synchronized oscillations in population density (cyclic cargo release) and inducible population death (kill switch). To confirm this principle, experiments were performed to test the ability to drive the population dynamics from state one (population growth) to state three (population death) through pCA induction (FIG. 3A). […]

lux QS system = assay: crosstalk of p-coumaric acid with the lux QS system, growth curves (plate reader); format: cell-based, E. coli; conditions: range of pCA concentrations; FIG. 9
Method: (§1) For plate reader experiments, the appropriate strains were seeded from a −80° C. glycerol stock into 3 ml LB with 0.2% glucose and appropriate antibiotics and incubated in a 37° C. shaking incubator. The following day, 2 μL of overnight culture were added to 200 μL fresh media containing appropriate antibiotics in a standard Falcon tissue culture 96-well flat bottom plate. Cells were incubated at 37° C. shaking in a Tecan Infinite M200 Pro. Cells were grown for about 12 hours. The optical density at 600 nm absorbance was measured every 10 minutes.
Experiments were performed to investigate the orthogonal properties of the iQS circuit by co-culturing the iSLC with a non-inducible SLC strain based on the lux QS system, one of the most commonly used and well understood QS systems in synthetic biology (FIG. 4A). […] Next, a previously described microfluidic chip was used (FIG. 2D and FIG. 7) to co-culture the iSLC and SLC strains (starting at 1:1 ratio) under a gradient of inducer concentrations. […] Without inducer, the quiescent iSLC strain was able to displace the SLC strain due to an advantage in population growth rate. At intermediate concentrations (15 nM), stable co-culture of both strains were maintained with independently sustained oscillations for more than 40 hours.

wild type E. Coli strain = assay: wild type E. Coli growth curves in a range of p-coumaric acid concentrations (plate reader); format: cell-based; conditions: within the characterized concentration range; FIG. 1E
Method: as §1

[2] = system: iSLC and SLC strains co-culture; assay: co-culture of iSLC and SLC strains under a gradient of inducer concentrations (microfluidics); format: cell-based, E. coli
Excerpt: The microscopy and microfluidics techniques used are similar to those previously reported. The microfluidic devices were constructed from PDMS (polydimethylsiloxane), which was molded and baked on a silicon wafer with micronscale features formed by crosslinked photoresist. Once the PDMS hardened, it was peeled off, and individual devices were cut out. In order to connect fluid lines to the device, holes where punched in correspondence of the inlets and outlets of the device. Afterwards, the devices were bonded onto glass slides using plasma activation. Before each experiment, the devices were left for 30 minutes in a vacuum chamber. Meanwhile, 1 mL of overnight cell culture was spun down by centrifugation and re-suspended in 10 μL of fresh media with appropriate antibiotics. After taking the device out of the vacuum chamber, a single droplet of resuspended cells was positioned in correspondence of the outlet opening. Similarly, droplets of sterile fresh media were placed in correspondence of the inlets openings. In all cases, 0.075% Tween20 was added to the medium to prevent cells from sticking to the PDMS walls. After all chip features were wetted, the fluids lines were plugged in and the height of the inlet was raised 10 to 40 cm above the device. The outlet syringe was instead placed at the same height of the device. For co-culturing experiments in FIG. 4, cells were cultured individually overnight and eventually spun down and re-suspended together (1:1 ratio) allowing for a single droplet to be loaded on the device. […] At 4× magnification fluorescence exposure times were 2 seconds at 30% intensity for both gfp and cfp while at 10× magnification they were 200 us at 30% intensity for both GFP and CFP. […]
(§2) Fluorescence intensity profiles were obtained by analyzing frames from the fluorescent channels. The mean fluorescence values were calculated by drawing a rectangle surrounding each trap individually and extracting the z-axis profile on ImageJ. Fluorescence values shown in FIG. 2 were normalized by dividing all data by a constant factor. […]

iQS strain = iQS strain fluorescence response to pCA, microwell plate reader; format: cell-based, Escherichia Coli; conditions: FIG. 1D
Method: To design an exemplary iQS system, the two-step pathway which converts pCA into p-coumaroyl-HSL (pC-HSL) was genetically reconstructed through the production of the intermediate molecule p-coumaroyl-CoA (FIG. 1A). The first conversion is catalyzed by the p-coumaric acid-CoA ligase encoded by the 4CL2nt gene from the plant Nicotiana tabacum while the second step is catalyzed by the RpaI synthase. Additionally, superfolder green fluorescent protein (sfGFP) was added to be able to monitor the inducible dynamics. […] Escherichia Coli was chosen as the host chassis for the double plasmid circuit. The methods described in Example 1 are also applicable to Examples 2, 3, and 4.
(§3) The iSLC and SLC strains were both cultured in lysogeny broth (LB) media with 50 μg mL^−1 kanamycin, 34 μg mL^−1 chloramphenicol and 0.2% glucose for strains containing ColE1 origin and p15A origin plasmids in a 37° C. shaking incubator. Plasmid pTD103 RpaR-RpaI-LAA-sfGFP^21, ptD103-CFP were constructed by as described in previous studies (see, e.g., FIG. 11). Both plasmids pAM014 and pAM021 were obtained by inserting the 4CL2nt gene under the constitutive promoter J23106 from the Anderson promoter library. The 4CL2nt gene and the promoter were synthesized with overlapping PCR of long oligonucleotides (IDT). All plasmids were constructed by Gibson assembly followed by transformation into DH5α (Thermofisher) chemically competent E. coli. All plasmids were verified by Sanger sequencing before transformation into E. coli strain MG1655.
as §1

iSLC strain [3] = assay: iSLC kill switch induction in microfluidic traps; format: cell-based, E. coli; conditions: induction with 500 nM pCA after saturation of traps; 406 traps
Excerpt: The microscopy and microfluidics techniques used are similar to those previously reported. The microfluidic devices were constructed from PDMS (polydimethylsiloxane), which was molded and baked on a silicon wafer with micronscale features formed by crosslinked photoresist. Once the PDMS hardened, it was peeled off, and individual devices were cut out. In order to connect fluid lines to the device, holes where punched in correspondence of the inlets and outlets of the device. Afterwards, the devices were bonded onto glass slides using plasma activation. Before each experiment, the devices were left for 30 minutes in a vacuum chamber. Meanwhile, 1 mL of overnight cell culture was spun down by centrifugation and re-suspended in 10 μL of fresh media with appropriate antibiotics. […] At 4× magnification fluorescence exposure times were 2 seconds at 30% intensity for both gfp and cfp while at 10× magnification they were 200 us at 30% intensity for both GFP and CFP. […]
as §2

iSLC strain [4] = assay: iSLC strain population dynamics in microfluidic inducer gradient device; format: cell-based, E. coli
Method: as §3
The microscopy and microfluidics techniques used are similar to those previously reported. The microfluidic devices were constructed from PDMS (polydimethylsiloxane), which was molded and baked on a silicon wafer with micronscale features formed by crosslinked photoresist. Once the PDMS hardened, it was peeled off, and individual devices were cut out. In order to connect fluid lines to the device, holes where punched in correspondence of the inlets and outlets of the device. Afterwards, the devices were bonded onto glass slides using plasma activation. […]

O=C(O)/C=C/c1ccc(O)cc1 [pCA, p-coumaric acid]
cell survival (CFU) (iSLC strain [1]): several order of magnitude decrease
crosstalk with lux QS system / growth curves (lux QS system): absence of crosstalk; also recorded: growth curves are unaffected
toxicity to wild type E. Coli (growth curves) (wild type E. Coli strain): not toxic
duration of stable co-culture with independently sustained oscillations ([2]; 15 nM, starting 1:1 ratio): more than 40 hours
co-culture outcome at high pCA concentration ([2]; 110 nM, starting 1:1 ratio): death of all iSLC cells
co-culture outcome at inducer values higher than 340 nM ([2]; higher than 340 nM, FIG. 10): iSLC death and SLC takeover
iQS circuit behavior at intermediate inducer levels (iQS strain; 1 nM and 10 nM pCA): population-dependent switch-like behavior
iQS circuit behavior at high inducer concentrations (iQS strain; 100 nM to 10 μM pCA): linear relationship between fluorescence expression and population density
optical density threshold of steep increase in fluorescence signal (iQS strain; intermediate levels (1 nM and 10 nM) pCA): around 0.3
microfluidic traps with cell death after synchronized lysis event (iSLC strain [3]): more than 97%
fraction of all microfluidics traps able to survive (iSLC strain [4]; high pCA concentrations 110 nM to 1 μM, universal cell lysis): < 3%
average period of sustained synchronized oscillations (iSLC strain [4]; intermediate inducer concentration 15 nM): approximately 200 minutes
